The text below walks through data of US11952363B2, “Piperazine compounds for the treatment of autoimmune disease” (Hoffmann-La Roche Inc., priority 2018, dated 2024).

The target in one data set is T1, human TLR9 (Homo sapiens, UniProt Q9NR96).
T1 sequence (Q9NR96 26-1032): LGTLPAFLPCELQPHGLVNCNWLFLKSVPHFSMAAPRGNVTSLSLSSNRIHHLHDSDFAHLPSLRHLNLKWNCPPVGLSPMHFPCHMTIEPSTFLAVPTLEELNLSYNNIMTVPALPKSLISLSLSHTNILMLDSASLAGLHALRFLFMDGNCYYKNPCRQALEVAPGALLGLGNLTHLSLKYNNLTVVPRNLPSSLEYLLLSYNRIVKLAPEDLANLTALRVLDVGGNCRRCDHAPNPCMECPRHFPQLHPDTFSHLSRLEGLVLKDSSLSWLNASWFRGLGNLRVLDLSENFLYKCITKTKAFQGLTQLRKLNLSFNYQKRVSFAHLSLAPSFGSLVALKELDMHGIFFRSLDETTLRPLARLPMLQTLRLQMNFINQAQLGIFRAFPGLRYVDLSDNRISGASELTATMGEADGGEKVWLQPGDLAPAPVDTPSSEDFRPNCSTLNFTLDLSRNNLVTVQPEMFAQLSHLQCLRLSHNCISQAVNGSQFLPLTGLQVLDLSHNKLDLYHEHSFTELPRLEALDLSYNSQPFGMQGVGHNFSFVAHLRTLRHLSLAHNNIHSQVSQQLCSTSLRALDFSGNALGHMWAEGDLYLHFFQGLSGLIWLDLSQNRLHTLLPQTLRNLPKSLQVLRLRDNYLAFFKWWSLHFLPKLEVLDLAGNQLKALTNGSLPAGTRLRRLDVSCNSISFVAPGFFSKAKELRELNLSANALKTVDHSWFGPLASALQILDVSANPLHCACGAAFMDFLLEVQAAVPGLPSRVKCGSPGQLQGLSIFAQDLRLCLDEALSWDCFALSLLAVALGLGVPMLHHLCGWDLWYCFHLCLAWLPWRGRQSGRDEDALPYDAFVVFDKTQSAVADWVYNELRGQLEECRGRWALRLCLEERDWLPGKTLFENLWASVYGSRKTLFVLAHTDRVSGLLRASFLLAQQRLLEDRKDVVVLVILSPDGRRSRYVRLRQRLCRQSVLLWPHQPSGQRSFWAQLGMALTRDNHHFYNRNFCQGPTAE
As to the kind of experiment: HEK293-Blue-hTLR-9 cells assay (SEAP reporter, ODN2006 stimulation). The data set is classed as cell-based. The conditions noted are these: HEK293-Blue-hTLR9 cells, ODN2006 ligand, 20 hrs incubation; read-out: HEK/hTLR9 IC50. As for the experimental part:
The following tests were carried out in order to determine the activity of the compounds of formula (I) in HEK293-Blue-hTLR-7/8/9 cells assay.
A stable HEK293-Blue-hTLR-9 cell line was purchased from InvivoGen (Cat.#: hkb-htlr9, San Diego, California, USA). These cells were originally designed for studying the stimulation of human TLR9 by monitoring the activation of NF-κB. A SEAP (secreted embryonic alkaline phosphatase) reporter gene was placed under the control of the IFN-β minimal promoter fused to five NF-κB and. AP-1-binding sites. The SEAP was induced by activating NF-κB and AP-1 via stimulating HEK-Blue hTLR9 cells with TLR9 ligands. Therefore the reporter expression was declined by TLR9 antagonist under the stimulation of a ligand, such as ODN2006 (Cat.#: tlr1-2006-1, Invivogen, San Diego, California, USA), for incubation of 20 his. The cell culture supernatant SEAP reporter activity was determined using QUANTI-Blue™ kit (Cat.#: rep-qb1, Invivogen, San Diego, California, USA) at a wavelength of 640 nm, a detection medium that turns purple or blue in the presence of alkaline phosphatase.
HEK293-Blue-hTLR9 cells were incubated at a density of 250,000-450,000 cells/mL in a volume of 170 μL in a 96-well plate in Dulbecco's Modified Eagle's medium (DMEM) containing 4.5 g/L glucose, 50 U/mL penicillin, […], […], 2 mM L-glutamine, 10% (v/v) heat-inactivated fetal bovine serum with addition of 20 μL test compound in a serial dilution in the presence of final DMSO at 1% and 10 p L of 20uM ODN2006 in above DMEM, perform incubation under 37° C. in a CO2 incubator for 20 hrs. Then 20 μL of the supernatant from each well was incubated with 180 μL Quanti-blue substrate solution at 37° C. for 2 h and the absorbance was read at 620˜655 nm using a spectrophotometer. The signaling pathway that TLR9 activation leads to downstream NF-κB activation has been widely accepted, and therefore similar reporter assay was modified for evaluating TLR9 antagonist.

Data set [1] in a line: Human microsomal stability assay. The class given is in vitro ADME. Particulars: human liver microsomes 0.5 mg/mL, 1 μM test compound, 37° C., pH 7.4. As for the experimental part:
Human liver microsomes (Cat.NO.: 452117, Corning, USA) were preincubated with test compound for 10 minutes at 37° C. in 100 mM potassium phosphate buffer, pH 7.4. The reactions were initiated by adding NADPH regenerating system. The final incubation mixtures contained 1 μM test compound, 0.5 mg/mL liver microsomal protein, 1 mM MgCl2, 1 mM NADP, 1 unit/mL isocitric dehydrogenase and 6 mM isocitric acid in 100 mM potassium phosphate buffer, pH 7.4. After incubation times of 0, 3, 6, 9, 15 and 30 minutes at 37° C., 300 μL of cold ACN (including internal standard) was added to 100 μL incubation mixture to terminate the reaction. Following precipitation and centrifugation, 100 uL supernatant will be taken out and added 300 uL water. The amount of compound remaining in the samples was determined by LC-MS/MS. Controls of no NADPH regenerating system at zero and 30 minutes were also prepared and analyzed.
Background: Microsomes from liver hold many membrane-bound enzymes, among them those of drug oxidation.

Turning to `C[C@@H]1CN(c2ccc(C#N)c3ncccc23)C[C@H](C)N1CC(=O)N1Cc2ccc(N3CCNCC3)cc2C1` [Example 16, 5-[(3R,5S)-3,5-Dimethyl-4-[2-oxo-2-(5-piperazin-1-ylisoindolin-2-yl)ethyl]piperazin-1-yl]quinoline-8-carbonitrile], the IC50 at human TLR9 turned out to be 75 nM. The “Clearance of Human microsome” value in data set [1] is given as 9.4 mL/min/kg.

Consider `C[C@@H]1CN(c2ccc(C#N)c3ncccc23)C[C@H](C)N1Cc1ccc(N2CCN(C)CC2)cn1` [Example 7, 5-[(3S,5R)-3,5-dimethyl-4-[[5-(4-methylpiperazin-1-yl)-2-pyridyl]methyl]piperazin-1-yl]quinoline-8-carbonitrile], for which the IC50 at human TLR9 was found to be 120 nM.

For the molecule `C[C@@H]1CN(c2ccc(C#N)c3ncccc23)C[C@H](C)N1Cc1ccc(N2CCNCC2)nc1` [Example 3, 5-[(3R,5S)-3,5-Dimethyl-4-[(6-piperazin-1-yl-3-pyridyl)methyl]piperazin-1-yl]quinoline-8-carbonitrile], the IC50 on human TLR9 was 93 nM. Moreover, the “Clearance of Human microsome” value in data set [1] was 11.6 mL/min/kg.

With `CC1CN(c2ccc(C#N)c3ncccc23)CCN1CC(=O)N1CCC(C2CCN(C)CC2)CC1` (stereo not shown) [Example 19, 5-[3-methyl-4-[2-[4-(1-methyl-4-piperidyl)-1-piperidyl]-2-oxo-ethyl]piperazin-1-yl]quinoline-8-carbonitrile], the IC50 on human TLR9 worked out at 116 nM. Moreover, the “Clearance of Human microsome” value in data set [1] is listed as 6.7 mL/min/kg.

As to `C[C@@H]1CN(c2ccc(C#N)c3ncccc23)C[C@H](C)N1Cc1ccc(N2CCNCC2CO)cc1` (stereo partly drawn) [Example 12, 5-[(3R,5S)-4-[[4-[2-(Hydroxymethyl)piperazin-1-yl]phenyl]methyl]-3,5-dimethyl-piperazin-1-yl]quinoline-8-carbonitrile], the IC50 at human TLR9 is 60 nM. Besides, in data set [1], the “Clearance of Human microsome” value worked out at 10.1 mL/min/kg.

For the molecule `CC1CN(c2ccc(C#N)c3ncccc23)CCN1CC(=O)Nc1ccc(N2CCNCC2)cc1` (stereo not shown) [Example 17, 2-[4-(8-Cyano-5-quinolyl)-2-methyl-piperazin-1-yl]-N-(4-piperazin-1-ylpheny)acetamide], at human TLR9, the IC50 turned out to be 103 nM. In addition, the “Clearance of Human microsome” value in data set [1] was 6.9 mL/min/kg.

Regarding `C[C@@H]1CN(c2ccc(C#N)c3ncccc23)C[C@H](C)N1CC(=O)N1CCc2cc(N3CCNCC3)ccc2C1` [Example 14, 5-[(3R,5S)-3,5-Dimethyl-4-[2-oxo-2-(6-piperazin-1-yl-3,4-dihyrdo-1H-isoquinolin-2-yl)ethyl]piperazin-1-yl]quinoline-8-carbonitrile], on human TLR9, the IC50 came to 116 nM. The “Clearance of Human microsome” value in data set [1] is 12.9 mL/min/kg.

With `C[C@@H]1CN(c2ccc(C#N)c3ncccc23)C[C@H](C)N1Cc1ccc(N2CC3CNCC(C2)O3)cn1` [Example 8, 5-[(3S,5R)-3,5-Dimethyl-4-[[5-(9-oxa-3,7-diazabicyclo[3.3.1]nonan-3-yl)-2-pyridyl]methyl]piperazin-1-yl]quinoline-8-carbonitrile], on human TLR9, the IC50 is 73 nM. For the same molecule, the “Clearance of Human microsome” value in data set [1] is 12.4 mL/min/kg.

Take `C[C@@H]1CN(c2ccc(C#N)c3ncccc23)C[C@H](C)N1Cc1ncc(N2CCN(C(=O)CN(C)C)CC2)cn1` [Example 6, 5-[(3S,5R)-4-[[5-[4-[2-(Dimethylamino)acetyl]piperazin-1-yl]pyrimidin-2-yl]methyl]-3,5-dimethyl-piperazin-1-yl]quinoline-8-carbonitrile]: the IC50 at human TLR9 was found to be 139 nM. The “Clearance of Human microsome” value in data set [1] was 10.5 mL/min/kg.

For the molecule `C[C@@H]1CN(c2ccc(C#N)c3ncccc23)C[C@H](C)N1CC(=O)N1CCc2nc(N3CCNCC3)ccc2C1` [Example 13, 5-[(3R,5S)-3,5-Dimethyl-4-[2-oxo-2-(2-piperazin-1-yl-7,8-dihydro-5H-1,6-naphthyridin-6-yl)ethyl]piperazin-1-yl]quinoline-8-carbonitrile], the IC50 at human TLR9 amounted to 132 nM.

As to `C[C@@H]1CN(c2ccc(C#N)c3ncccc23)C[C@H](C)N1Cc1ccc(N2CCN(C(=O)CN(C)C)CC2)cn1` [Example 11, 5-[(3S,5R)-4-[[5-[4-[2-(Dimethylamino)acetyl]piperazin-1-yl]-2-pyridyl]methyl]-3,5-dimethyl-piperazin-1-yl]quinoline-8-carbonitrile], the IC50 on human TLR9 is 96 nM.

Regarding `C[C@@H]1CN(c2ccc(C#N)c3ncccc23)C[C@H](C)N1Cc1ccc(N2CCNCC2)cc1` [Example 1, 5-[(3R,5S)-3,5-Dimethyl-4-[(4-piperazin-1-ylphenyl)methyl]piperazin-1-yl]quinoline-8-carbonitrile], the IC50 at human TLR9 was 39 nM. In addition, the “Clearance of Human microsome” value in data set [1] stood at 11.2 mL/min/kg.

Turning to `C[C@@H]1CN(c2ccc(C#N)c3ncccc23)C[C@H](C)N1Cc1ncc(N2CCNCC2)cn1` [Example 4, 5-[(3S,5R)-3,5-Dimethyl-4-[(5-piperazin-1-ylpyrimidin-2-yl)methyl]piperazin-1-yl]quinoline-8-carbonitrile], the IC50 on human TLR9 came to 137 nM. Besides, the “Clearance of Human microsome” value in data set [1] is 10.4 mL/min/kg.

For the molecule `C[C@@H]1CN(c2ccc(C#N)c3ncccc23)C[C@@H](C)N1Cc1ccc(N2CCNCC2)cc1` [Example 2], the IC50 at human TLR9 was 65 nM. In addition, in data set [1], the “Clearance of Human microsome” value amounted to 8.0 mL/min/kg.

For the molecule `C[C@@H]1CN(c2ccc(C#N)c3ncccc23)C[C@H](C)N1CC(=O)N1CCc2ccc(N3CCNCC3)cc2C1` [Example 15, 5-[(3R,5S)-3,5-dimethyl-4-[2-pxp-2-(7-piperazin-1-yl-3,4-dihydro-1H-isoquinolin-2-yl)ethyl]piperazin-1-yl]quinoline-8-carbonitrile], on human TLR9, the IC50 was found to be 94 nM.

In the case of `C[C@@H]1CN(c2ccc(C#N)c3ncccc23)C[C@H](C)N1Cc1ccc(N2CCN(C(=O)C3CCCN3)CC2)cn1` (stereo partly drawn) [Example 10, 5-[(3R,5S)-3,5-Dimethyl-4-[[5-[4-(pyrrolidine-2-carbonyl)piperazin-1-yl]-2-pyridyl]methyl]piperazin-1-yl]quinoline-8-carbonitrile], on human TLR9, the IC50 was 41 nM.

As for `C[C@@H]1CN(c2ccc(C#N)c3ncccc23)C[C@H](C)N1Cc1ccc(N2CCNCC2)cn1` [Example 5, 5-[(3S,5R)-3,5-Dimethyl-4-[(5-piperazin-1-yl-2-pyridyl)methyl]piperazin-1-yl]quinoline-8-carbonitrile], the IC50 on human TLR9 is 84 nM.
